From patent US20220017495A1, “CONJUGATES OF BIVALENT EVANS BLUE DYE DERIVATIVES AND METHODS OF USE” (THE UNITED STATES OF AMERICA, AS REPRESENTED BY THE …, priority 2019, published 2022) come the findings set out here.

Series [1] can be described thus: Optical properties: absorption, emission, quantum yield and quantum efficiency. Conditions: for Molar ϵ600nm / Molar ϵpeak: in M-1cm-1 (unit assumed); for Absorption peak / Emission peak: in BSA; for QE: QE=ε*QY; for QY600nm: relative, NtEB set as 1; for Extinction coefficient: as given in text (peak, BSA). Set-up: ϵ600nm / ϵpeak: unit not given here. Format: physicochemical. The method, then:
The absorption and the emission spectra of N(tEB)2, NtEB and EB were measured in PBS, BSA and FBS buffers. […] The similar emission peaks of the three EB derivatives in BSA were recorded at 661, 652 and 660 nm, respectively.
Fluorescence brightness of each compound was further compared with equal molar amount of N(tEB)2, NtEB, or EB in the presence or absence of human serum albumin.
Quantum efficiency is a dye metric encompassing both the quantum yield and absorption coefficient (QE=ε*QY).

The target of series [2] is T1, human serum albumin (HSA) (Homo sapiens, UniProt P02768). Description: Biolayer interferometry (BLI) binding to biotinylated HSA. The method, then:
In this study, we used the streptavidin conjugated biosensors (Pall Fort6Bio LLC, CA). We preincubated the biosensors with biotinylated HSA (Abeam Inc., Cambridge, Mass.) for 10 minutes. After removing the unbound biotinylated HSA, the biosensors were washed for 1 minute. After blocking the spare biosensor, we added EZ-Link™ Sulfo-NHS-Biotin (Thermo Fisher Scientific, Rockford, Ill.) to each well and then removed it and washed the wells.
Association of a given dilution of a compound with the albumin-derivatized biosensor was measured for 600 seconds and then in turn, dissociation of the compound from the albumin measured for another 600 seconds. Data was analyzed using the OCTET Data Analysis software 7.0.
On the technique in general: BLI is a label-free optical method that tracks binding on a fibre tip over time.

The test system of series [3] is U-87MG, UM-22B and INS-1 tumor mouse xenografts. Put plainly: PET tumor uptake and ex vivo biodistribution in tumor xenografts. The arrangement: species or system nude mice. Conditions: for Tumor retention compared with IgG: U-87MG xenografts. From the text: For each scan, regions of interest (ROIs) were drawn using vendor software (ASI Pro 5.2.4.0; Siemens Medical Solutions) on decay-corrected whole-body coronal images. […] These values were then divided by the administered activity to obtain (assuming a tissue density of 1 g/mL) an image-ROI-derived percentage injected dose per gram (% ID/g).
PET images were reconstructed without correction for attenuation or scattering using a three-dimensional ordered subsets expectation maximization algorithm.

The target in series [4] is T1, human serum albumin (HSA). Put plainly: Atomic force microscopy of complexes with HSA. Set-up: purchased Abeam Inc., Cambridge, Mass; (so in the source). Conditions: molar ratio 1:10, 1:1 and 10:1 with HSA. The method, then: We performed atomic force microscopy (AFM) to study the morphological structures of the complex. […] Samples ([…]) were cast on freshly peeled mica substrate, followed by drying, rinsing, and dehumidifying. AFM was carried out in tapping mode in air on a PicoForce Multimode AFM (Bruker, CA) equipped with a NANOSCOPE V controller, a type E scanner head, and a sharpened TESP-SS (Bruker, CA) AFM cantilever. An inverted optical microscope (IX71, Olympus, Japan) was used to capture pictures. AFM images were then analyzed by NANOSCOPE Software (version 7.3-8.15, Bruker, CA). For quantification, 10 different fields of view in one image were selected to quantify the “dimer” and the “monomer”. The size and morphology of dimer and monomer was defined by ImageJ (NIH, MD), a public domain Java image processing program.

Series [5] has as its system blood glucose. Description: Blood glucose monitoring in T2DM mice. Format: in vivo, db/db mice.

What is called Kd is the free concentration of one partner at which half of the binding sites on the other are occupied at equilibrium, for simple one-to-one binding. A word on the kon: it is the second-order rate constant of association.

Where a name gives a salt, the structure may show the parent alone.

T1 sequence (P02768 25-609): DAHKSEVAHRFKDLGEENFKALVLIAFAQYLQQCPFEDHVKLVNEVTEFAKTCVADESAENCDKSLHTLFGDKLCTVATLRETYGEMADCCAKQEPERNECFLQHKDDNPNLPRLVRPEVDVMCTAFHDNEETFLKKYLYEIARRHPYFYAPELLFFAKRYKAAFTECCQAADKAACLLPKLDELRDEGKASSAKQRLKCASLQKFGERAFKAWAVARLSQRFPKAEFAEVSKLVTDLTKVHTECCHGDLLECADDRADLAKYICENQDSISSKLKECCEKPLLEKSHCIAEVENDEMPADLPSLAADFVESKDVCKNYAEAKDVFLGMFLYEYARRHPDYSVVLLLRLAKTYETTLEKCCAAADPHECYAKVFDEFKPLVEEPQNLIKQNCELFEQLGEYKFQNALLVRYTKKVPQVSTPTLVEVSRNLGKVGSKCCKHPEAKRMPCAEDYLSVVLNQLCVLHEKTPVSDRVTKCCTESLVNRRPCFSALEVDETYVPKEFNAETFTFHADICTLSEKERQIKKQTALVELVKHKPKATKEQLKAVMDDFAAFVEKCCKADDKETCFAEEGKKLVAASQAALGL

On to `Cc1cc(-c2ccc(N=Nc3ccc4c(S(=O)(=O)O)cc(S(=O)(=O)O)c(N)c4c3O)c(C)c2)ccc1N=Nc1ccc2c(S(=O)(=O)O)cc(S(=O)(=O)O)c(N)c2c1O` [EB, tetrasodium salt of 6,6′-{(3,3′-dimethyl[1,1′-biphenyl]-4,4′-diyl)bis[diazene-2,1-diyl]}bis(4-amino-5-hydroxynaphthalene-1,3-disulfonate)], for which, in series [1] (In BSA), the OD600nm came to 0.905, the ODpeak was 0.9551, the ϵ600nm is 88.14 and the ϵpeak came to 93.02. Moreover, in series [1] (In BSA), the “Molar ϵ600nm” value was found to be 84683.69 and the “Molar ϵpeak” value came out at 89371.71. In series [1] (In FBS), this compound showed an OD600nm of 0.8414, an ODpeak of 0.9057, a ϵ600nm of 81.94 and a ϵpeak of 88.21. For the same compound, in series [1] (In FBS), the “Molar ϵ600nm” value turned out to be 78732.44 and the “Molar ϵpeak” value is listed as 84749.19. Also, in series [1] (In PBS), the OD600nm was 0.9906, the ODpeak was 0.9983, the ϵ600nm turned out to be 96.47 and the ϵpeak was found to be 97.22. Also, in series [1] (In PBS), the “Molar ϵ600nm” value is given as 92693.55 and the “Molar ϵpeak” value was found to be 93414.07. In series [1], this compound yielded an Absorption peak of 548 nm and an Emission peak of 660 nm.

In the case of `Cc1cc(-c2ccc(NC(=O)CN3CCN(CC(=O)O)CCN(CC(=O)Nc4ccc(-c5ccc(N=Nc6ccc7c(S(=O)(=O)O)cc(S(=O)(=O)O)c(N)c7c6O)c(C)c5)cc4C)CC3)c(C)c2)ccc1N=Nc1ccc2c(S(=O)(=O)O)cc(S(=O)(=O)O)c(N)c2c1O` [N(tEB)2], in series [2], the “Kd times lower than EB complex with albumin” value is 2 times, the “Kd times lower than NtEB complex with albumin” value was found to be 43 times, the Kon value is 47100 M⁻¹ s⁻¹ and the koff value amounted to 0.10 s⁻¹. Besides, in series [2] (pH 7.4), the affinity, expressed as Kd, was 1.8 µM; the Koff is 0.1009 s⁻¹; the Kon is 4.7128. Besides, in series [1], the “QE improvement over NtEB” value was 5 fold, the “Quantum yield enhancement over NtEB” value is listed as 2 fold, the Extinction coefficient is 55198 M⁻¹ cm⁻¹ and the Absorption peak is recorded as 610 nm. In series [1], this compound had an Emission peak of 661 nm. In series [1] (In BSA), this compound displayed an OD600nm of 0.1245, an ODpeak of 0.183, a ϵ600nm of 27.79 and a ϵpeak of 40.85. Moreover, in series [1] (In BSA), the QE is 78929.01, the “Molar ϵ600nm” value turned out to be 37553.09, the “Molar ϵpeak” value was found to be 55198.51 and the QY600nm turned out to be 2.10. In series [1] (In FBS), this compound came in with an OD600nm of 0.1561, an ODpeak of 0.1931, a ϵ600nm of 34.84 and a ϵpeak of 43.10. In series [1] (In FBS), the QE is 98962.49, the “Molar ϵ600nm” value was 47084.63, the “Molar ϵpeak” value is reported as 58244.99 and the QY600nm came out at 2.10. Besides, in series [1] (In PBS), the OD600nm worked out at 0.0987, the ODpeak is listed as 0.1806, the ϵ600nm was determined as 22.03 and the ϵpeak came to 40.31. Moreover, in series [1] (In PBS), the “Molar ϵ600nm” value was 29771.00 and the “Molar ϵpeak” value is 54474.60. Further, in series [3] (24 h p.i.), the “Tumor retention compared with IgG” value was “comparable”. For the same compound, in series [3] (48 h p.i.), the “Tumor retention compared with IgG” value is listed as “significantly higher”. For the same compound, in series [3] (^64Cu labeled, all tested tumor models, 24 and/or 48 h p.i.), the “Tumor uptake compared with NtEB” value is “significantly improved”. The “Dimerization of albumin (AFM)” value in series [4] is “observed at all tested molar ratios”.

In series [2] (pH 7.4), `Cc1cc(-c2ccc(NC(=O)CN3CCN(CC(=O)O)CCN(CC(=O)O)CC3)c(C)c2)ccc1N=Nc1ccc2c(S(=O)(=O)O)cc(S(=O)(=O)O)c(N)c2c1O` [NtEB] registered a Kd of 79 µM, a Koff of 0.7947 s⁻¹ and a kon of 13500 M⁻¹ s⁻¹. In series [1] (In BSA), this compound yielded an OD600nm of 0.0759, an ODpeak of 0.1108, a ϵ600nm of 18.98 and a ϵpeak of 27.70. Moreover, in series [1] (In BSA), the QE was 15696.60, the “Molar ϵ600nm” value was 15696.60, the “Molar ϵpeak” value was 22914.15 and the QY600nm is on record as 1. Also, in series [1] (In FBS), the OD600nm is recorded as 0.0883, the ODpeak was 0.1132, the ϵ600nm worked out at 22.08 and the ϵpeak is listed as 28.30. Further, in series [1] (In FBS), the QE came out at 18261.00, the “Molar ϵ600nm” value is reported as 18261.00, the “Molar ϵpeak” value was determined as 23410.48 and the QY600nm is reported as 1. In series [1] (In PBS), this compound yielded an OD600nm of 0.0857, an ODpeak of 0.1533, a ϵ600nm of 21.43 and a ϵpeak of 38.33. In series [1] (In PBS), the “Molar ϵ600nm” value came out at 17723.31 and the “Molar ϵpeak” value is recorded as 31703.42. Besides, in series [1], the Extinction coefficient is 22914 M⁻¹ cm⁻¹, the Absorption peak was found to be 550 nm and the Emission peak amounted to 652 nm. Moreover, the “Dimerization of albumin (AFM)” value in series [4] is listed as “no apparent albumin dimers”.

With “exendin-4: exendin-4 peptide, a glucagon-like peptide-1 (GLP-1) agonist”, the “Reduction of glucose level” value in series [5] (1 h p.i., normalized to baseline plasma glucose) is on record as “approximately 50%”. Besides, in series [5] (at 12 h), the “Glucose level at recovery” value was found to be 389.67 ± 44.3 mg/dL. Also, in series [5] (single subcutaneous injection), the “Effective time window (from 50% reduction of glucose level to rebound to the original level)” value is listed as 10.3 h and the Glucose recovery time is listed as 12 h.
